This experiment concerns the target T1, human PAD4 (Homo sapiens, UniProt Q9UM07).
T1 construct: human PAD4 (NM_012387), A2-P663, was PCR amplified; His-SUMO (N, cleaved yes); made in house; host or cells: E. coli BL21(DE3)
The experiment can be described thus: In vitro PAD4 BAEE biochemical assay. The note with it: BAEE substrate 3 mM, 5 nM PAD4, 2 mM calcium chloride; geometric mean of multiple experiments. An outline of the steps:
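Recombinant human PAD4 (5 nM final) with 2 mM CaCl2 was preincubated with compound 30 min at 25 °C in MOPS buffer pH 7.6, then reacted with 3 mM BAEE for 2 h at 25 °C. After EDTA stop, released ammonia was detected by o-phthalaldehyde/DTT fluorescence (ex 405/em 535 nm); IC50 from four-parameter fit, geometric mean.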

Consider 17 molecules from patent US11976083B2, “Inhibitors of peptidylarginine deiminases” (Gilead Sciences, Inc., priority 2020, dated 2024).

Molecules are shown by their SMILES.

T1 sequence (Q9UM07 2-663): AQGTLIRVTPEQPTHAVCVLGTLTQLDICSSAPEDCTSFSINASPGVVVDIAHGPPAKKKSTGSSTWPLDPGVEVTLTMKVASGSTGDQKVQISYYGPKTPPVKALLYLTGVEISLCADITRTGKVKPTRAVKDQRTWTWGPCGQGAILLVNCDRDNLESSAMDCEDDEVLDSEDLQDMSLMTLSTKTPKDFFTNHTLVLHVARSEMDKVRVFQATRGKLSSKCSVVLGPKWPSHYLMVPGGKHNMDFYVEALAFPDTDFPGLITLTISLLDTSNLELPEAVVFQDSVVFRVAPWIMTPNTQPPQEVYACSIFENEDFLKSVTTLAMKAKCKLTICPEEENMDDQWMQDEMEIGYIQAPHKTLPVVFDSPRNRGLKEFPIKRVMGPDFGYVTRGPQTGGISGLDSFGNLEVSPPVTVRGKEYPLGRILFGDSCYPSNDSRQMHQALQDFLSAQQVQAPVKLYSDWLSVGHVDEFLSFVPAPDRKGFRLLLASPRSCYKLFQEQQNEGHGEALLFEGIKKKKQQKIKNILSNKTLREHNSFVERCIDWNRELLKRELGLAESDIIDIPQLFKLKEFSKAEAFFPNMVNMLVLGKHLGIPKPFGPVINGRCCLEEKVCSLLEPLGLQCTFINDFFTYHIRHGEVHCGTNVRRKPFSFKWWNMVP

Broadly, the IC50 is the point on the concentration scale where inhibition reaches its midpoint. As to `COc1cc(C(=O)N2C[C@H](N)[C@@H]3CC[C@H]2C3)cc2nc(-c3cc4ccc5nc4n3CCCCCC[C@@](F)(c3cccc(Cl)n3)C(=O)N[C@@H]5C)n(C)c12` [Example 887, (8~{R},11~{R})-17-[5-[(1~{S),4~{R},5~{R})-4-amino-2-azabicyclo[3.2.1]octane-2-carbonyl]-7-methoxy-1-methyl-benzimidazol-2-yl]-8-(6-chloro-2-pyridyl)-8-fluoro-11-methyl-1,10,19-triazatricyclo[10.5.2.0^ {15,18}]nonadeca-12(19),13,15(18), 16-tetraen-9-one], the IC50 is 52 nM.

For the molecule `COc1cc(C(=O)N2[C@H]3CC[C@@H]2[C@H](N)C3)cc2nc(-c3cc4ccc5nc4n3CC(C)(C)CCCCCC(=O)N[C@@H]5C)n(C)c12` [Example 141, (11~{R})-17-[5-[(1~{R},2~{R},4~{S})-2-amino-7-azabicyclo[2.2.1]heptane-7-carbonyl]-7-methoxy-1-methyl-benzimidazol-2-yl]-3,3,11-trimethyl-1,10,19-triazatricyclo[10.5.2.0^{15,18}]nonadeca-12(19),13,15(18),16-tetraen-9-one], the IC50 is 68 nM.

For `COc1cc(C(=O)N2C[C@H]3CC[C@@H]2[C@@H]3N)cc2nc(-c3cc4ccc5nc4n3CCCCCCCCC(=O)N[C@@H]5C)n(C)c12` [Example 289, (12~{R})-18-[5-[(1~{R},4~{R},7~{R})-7-amino-2-azabicyclo[2.2.1]heptane-2-carbonyl]-7-methoxy-1-methyl-benzimidazol-2-yl]-12-methyl-1,11,20-triazatricyclo[11.5.2.0^{16,19}]icosa-13(20),14,16(19),17-tetraen-10-one], the IC50 came out at 25 nM.

As for `C[C@H]1NC(=O)[C@@H]2C[C@H]2CCCC(F)(F)Cn2c(-c3nc4cc(C(=O)N5C[C@H](N)[C@@H]6CC[C@H]5C6)cc(F)c4n3[C@@H]3C[C@H]3F)cc3ccc1nc32` [Example 477, (2~{R},5~{R},7~{R})-14-[5-[(1~{S},4~{R},5~{R})-4-amino-2-azabicyclo[3.2.1]octane-2-carbonyl]-7-fluoro-1-[(1~{R},2~{R})-2-fluorocyclopropyl]benzimidazol-2-yl]-11,11-difluoro-2-methyl-3,13,19-triazatetracyclo[11.5.2.0^{5,7}.0^{16,20}] icosa-1(19),14,16(20),17-tetraen-4-one], the IC50 worked out at 35 nM.

As for `COc1cc(C(=O)N2CC[C@@H](OC)[C@@H](N)C2)cc2nc(-c3cc4ccc5c(F)c4n3CCCCCCC(C)(C)C(=O)N[C@@H]5C)n(C)c12` [Example 643, (11~{R})-17-[5-[(3~{S}, 4~{R})-3-amino-4-methoxy-piperidine-1-carbonyl]-7-methoxy-1-methyl-benzimidazol-2-yl]-19-fluoro-8,8,11-trimethyl-1,10-diazatricyclo[10.5.2.0^ {15,18}]nonadeca-12(19),13,15(18),16-tetraen-9-one], the IC50 was 54 nM.

Turning to `COCCn1c(-c2cc3ccc4nc3n2CCCCC[C@@H]2C[C@H]2C(=O)N[C@@H]4C)nc2cc(C(=O)N3C[C@H](N)[C@@H]4CC[C@H]3C4)cc(OC)c21` [Example 817, (2~{R},5~{R},7~{R})-14-[5-[(1~{S},4~{R},5~{R})-4-amino-2-[3.2.1]octane-2-carbonyl]-7-methoxy-1-(2-methoxyethyl)benzimidazol-2-yl]-2-methyl-3,13,19-triazatetracyclo[11.5.2.0^ {5,7}.0^{16,20}]icosa-1(18),14,16,19-tetraen-4-one], the half-inhibitory concentration (IC50) is 13 nM.

`COc1cc(C(=O)N2CC[C@@H](OC(F)F)[C@@H](N)C2)cc2nc(-c3cc4ccc5nc4n3CCCCCC[C@@H](OC)C(=O)N[C@@H]5C)n(C)c12` [Example 629, (8~{R},11~{R})-17-[5-[(3~ {S},4~{R})-3-amino-4-(difluoromethoxy)piperidine-1-carbonyl]-7-methoxy-1-methyl-benzimidazol-2-yl]-8-methoxy-11-methyl-1,10,19-triazatricyclo [10.5.2.0^{15,18}]nonadeca-12(19),13,15(18),16-tetraen-9-one]: the IC50 came out at 108 nM.

In the case of `C[C@H]1NC(=O)c2ccc(C(F)F)nc2CCCCCn2c(-c3nc4cc(C(=O)N5C[C@H](N)[C@@H]6CC[C@H]5C6)cc(F)c4n3[C@@H]3C[C@H]3F)cc3ccc1nc32` [Example 776, (2~{R})-17-[5-[(1~{S},4~{R}, 5~{R})-4-amino-2-azabicyclo [3.2.1]octane-2-carbonyl]-7-fluoro-1-[(1~{R},2~{R})-2-fluorocyclopropyl]benzimidazol-2-yl]-8-(difluoromethyl)-2-methyl-3,9,16,22-tetrazatetracyclo[14.5.2.0^ {5,10).0^{19,23}]tricosa-1(22),5(10),6,8,17,19(23),20-heptaen-4-one], the IC50 was found to be 17 nM.

Turning to `COc1cc(C(=O)N2C[C@H](N)[C@@H]3CC[C@H]2C3)cc2nc(-c3cc4ccc5nc4n3CCCCCc3cccc(F)c3C(=O)N[C@@H]5C)n(C)c12` [Example 902, (2~{R})-17-[5-[(1~{S),4~{R}, 5~{R})-4-amino-2-azabicyclo [3.2.1]octane-2-carbonyl]-7-methoxy-1-methyl-benzimidazol-2-yl]-6-fluoro-2-methyl-3,16,22-triazatetracyclo [14.5.2.0^{5,10}.0^{19,23}] tricosa-1(22),5(10),6,8,17, 19(23),20-heptaen-4-one], the IC50 is 48 nM.

As for `COc1cc(C(=O)N2C[C@H](N)[C@@H]3CC[C@H]2C3)cc2nc(-c3cc4ccc5nc4n3CCCCCc3nc(Cl)ccc3C(=O)N[C@@H]5C)c(C3CC3)n12` [Example 768, (2~{R})-17-[7-[(1~{S},4~{R}, 5~{R})-4-amino-2-azabicyclo [3.2.1]octane-2-carbonyl]-3-cyclopropyl-5-methoxy-imidazo[1,2-a]pyridin-2-yl]-8-chloro-2-methyl-3,9,16,22-tetrazatetracyclo[14.5.2.0^ {5,10}.0^{19,23}]tricosa-1(22),5(10),6,8,17,19(23),20-heptaen-4-one], the IC50 stood at 59 nM.

On to `C[C@H]1NC(=O)c2ccc(Cl)nc2CCCCCn2c(-c3nc4cc(C(=O)N5C[C@H](N)[C@@H]6CC[C@H]5[C@H]6F)cc(F)c4n3C3CC3)cc3ccc1nc32` [Example 669, (2~{R})-17-[5-[(1~{S}, 4~{R},5~{S},8~{S})-4-amino-8-fluoro-2-azabicyclo[3.2.1]octane-2-carbonyl]-1-cyclopropyl-7-fluoro-benzimidazol-2-yl]-8-chloro-2-methyl-3,9,16,22-tetrazatetracyclo[14.5.2.0^ {5,10).0^{19,23}]tricosa-1(22),5(10),6,8,17,19(23),20-heptaen-4-one], for which the IC50 was determined as 45 nM.

Consider `CCn1c(-c2cc3ccc4nc3n2CCCCCCC(C)(C)C(=O)N[C@@H]4C)nc2cc(C(=O)N[C@H]3CNCC[C@@H]3F)c(F)cc21` [Example 423, 1-ethyl-6-fluoro-~{N}-[(3~{S},4~{S})-4-fluoro-3-piperidyl]-2-[(11~{R})-8,8,11-trimethyl-9-oxo-1,10,19-triazatricyclo[10.5.2.0^{15,18}]nonadeca-12(19),13,15(18),16-tetraen-17-yl]benzimidazole-5-carboxamide], for which the half-maximal inhibitory concentration (IC50) was found to be 64 nM.

With `COc1cc(C(=O)N2C[C@H]3CC[C@@H]2[C@@H]3N)cc2nc(-c3cc4ccc5nc4n3CCCCCc3ccccc3C(=O)N[C@@H]5C)n(C)c12` [Example 42, (2~{R})-17-[5-[(1~{R},4~{R},7~{R})-7-amino-2-azabicyclo[2.2.1]heptane-2-carbonyl]-7-methoxy-1-methyl-benzimidazol-2-yl]-2-methyl-3,16,22-triazatetracyclo[14.5.2.0^{5,10}.0^{19,23}] tricosa-1(22),5,7,9,17,19(23),20-heptaen-4-one], the IC50 stood at 108 nM.

`COc1cc(C(=O)N2C[C@H](N)[C@@H]3CC[C@H]2C3)cc2nc(-c3cc4ccc5nc4n3CCCCC[C@]3(F)C[C@@]3(C)C(=O)N[C@@H]5C)n(C)c12` [Example 916, (2~{R},5~{S},7~{S})-14-[5-[(1~{S},4~{R},5~{R})-4-amino-2-azabicyclo[3.2.1]octane-2-carbonyl]-7-methoxy-1-methyl-benzimidazol-2-yl]-7-fluoro-2,5-dimethyl-3,13,19-triazatetracyclo[11.5.2.0^ {5,7}.0^{16,20}]icosa-1(19),14,16(20),17-tetraen-4-one]: the IC50 worked out at 26 nM.

With `C[C@H]1NC(=O)C2(CC2)OCCCC(F)(F)Cn2c(-c3nc4cc(C(=O)N5C[C@H](N)[C@@H]6CC[C@H]5C6)cc(F)c4n3C3CC3)cc3ccc1nc32` [Example 773, (11~{R})-17-[5-[(1~{S},4~{R}, 5~{R})-4-amino-2-azabicyclo [3.2.1]octane-2-carbonyl]-1-cyclopropyl-7-fluoro-benzimidazol-2-yl]-3,3-difluoro-11-methyl-spiro[7-oxa-1,10,19-triazatricyclo[10.5.2.0^ {15,18}]nonadeca-12(19),13,15(18),16-tetraene-8,1′-cyclopropane]-9-one], the IC50 amounted to 16 nM.

As for `COc1cc(C(=O)N2CCC[C@@H](N)C2)cc2nc(-c3cc4ccc5nc4n3CCCCCCC3(CC3)C(=O)N[C@@H]5C)n(C)c12` [Example 233, (11~{R})-17-[5-[(3~{R})-3-aminopiperidine-1-carbonyl]-7-methoxy-1-methyl-benzimidazol-2-yl]-11-methyl-spiro[1,10,19-triazatricyclo[10.5.2.0^{15,18}]nonadeca-12(19),13,15(18),16-tetraene-8,1′-cyclopropane]-9-one], the IC50 amounted to 82 nM.

For `COc1cc(C(=O)N2[C@H]3CC[C@@H]2[C@H](N)C3)cc2nc(-c3cc4ccc5cc4n3CCCCCCC3(CC3)C(=O)N[C@@H]5C)n(C3CC3)c12` [Example 225, (11~{R})-17-[5-[(1~{R},2~{R},4~{S})-2-amino-7-azabicyclo[2.2.1]heptane-7-carbonyl]-1-cyclopropyl-7-methoxy-benzimidazol-2-yl]-11-methyl-spiro[1,10-diazatricyclo[10.5.2.0^{15,18}]nonadeca-12(19),13,15(18),16-tetraene-8,1′-cyclopropane]-9-one], the IC50 came out at 73 nM.
